One series deals with Micrococcus luteus. The series is described as follows: Antimicrobial activity against Micrococcus luteus DSM 348. It is filed as functional.
In another series the test system is Artemia salina. Kind of series: Toxicity against Artemia salina. The series is classed as organism-based. The following applies: in vivo.
A further series has as its system Bacillus subtilis. Kind of series: Antimicrobial activity against Bacillus subtilis DSM 347. It is filed as functional.

≈ marks a conversion by molar mass, not a printed value.

As to `C=C1CCC[C@H]2[C@](C)(CCC3=CCC(C4=CC(=O)OC4O)OC3)[C@H](C)CC[C@]12C` (stereo partly drawn) [CACOSPONGIONOLIDE B], the MIC in the series on Micrococcus luteus and in the series on Bacillus subtilis was 0.78 µg/mL (≈ 1.95 µM) each time. Further, the LC50 with Artemia salina is listed as 0.25 ppm.

Values taken from ChEMBL document CHEMBL1150094, “Cacospongionolide B, a new sesterterpene from the sponge Fasciospongia cavernosa” (J Nat Prod, 1995).
